BindingDB's records for doi:10.1021/acsmedchemlett.6b00489 (Peking University, 2017)

Columns and labels:
[1] = Inhibition of SDHB in human U2OS cells over-expressing Bim assessed as inhibition of apoptosis preincubated for 1 hr followed by doxycyclin addition to induce Bim protein expression measured after 24 hrs by Cell Titer-Glo assay
[2] = Inhibition of SDHB in human U2OS cells over-expressing tBid assessed as reduction in apoptosis preincubated for 1 hr followed by doxycyclin addition to induce tBid protein expression measured after 24 hrs by Cell Titer-Glo assay

| EC50 [1] [nM] | EC50 [2] [nM] | SMILES |
| --- | --- | --- |
| 1820 | – | CS(=O)(=O)c1nc(-c2ccc(=O)n(Cc3cccc(O)c3)c2)cc(C(F)(F)F)n1 |
| 57 | – | COc1cccc(Cn2cc(-c3cc(C(F)(F)F)nc(S(C)(=O)=O)n3)ccc2=O)c1 |
| 1140 | – | CS(=O)(=O)c1nc(-c2ccc(=O)n(Cc3ccccc3Cl)c2)cc(C(F)(F)F)n1 |
| 3490 | – | CS(=O)(=O)c1nc(-c2ccc(=O)n(Cc3ccc(C#N)cc3)c2)cc(C(F)(F)F)n1 |
| 164 | – | COc1ccc(Cn2cc(-c3cc(C(F)(F)F)nc(S(=O)(=O)CCCC(=O)N(C)C)n3)ccc2=O)cc1OC |
| 216 | – | COCCS(=O)(=O)c1nc(-c2ccc(=O)n(Cc3ccc(OC)c(OC)c3)c2)cc(C(F)(F)F)n1 |
| 817 | – | C#Cc1ccc(Cn2cc(-c3cc(C(F)(F)F)nc(S(C)(=O)=O)n3)ccc2=O)cc1 |
| 257 | – | CS(=O)(=O)c1nc(-c2ccc(=O)n(Cc3cccc(Cl)c3)c2)cc(C(F)(F)F)n1 |
| 1160 | – | CS(=O)(=O)c1nc(-c2ccc(=O)n(Cc3ccccc3)c2)cc(C(F)(F)F)n1 |
| > 20000 | – | COC(=O)c1ccc(-c2cc(C(F)(F)F)nc(S(C)(=O)=O)n2)cc1 |
| 4480 | – | C#Cc1cccc(Cn2cc(-c3cc(C(F)(F)F)nc(S(C)(=O)=O)n3)ccc2=O)c1 |
| > 20000 | – | COc1ccc(Cn2cc(-c3cc(C(F)(F)F)nc(S(=O)(=O)CCCC(N)=O)n3)ccc2=O)cc1OC |
| 25 | – | COc1ccc(Cn2cc(-c3cc(C(F)(F)F)nc(S(C)(=O)=O)n3)ccc2=O)cc1OC |
| 110 | – | CCOc1cccc(Cn2cc(-c3cc(C(F)(F)F)nc(S(C)(=O)=O)n3)ccc2=O)c1 |
| 364 | – | CCCCCS(=O)(=O)c1nc(-c2ccc(=O)n(Cc3ccc(OC)c(OC)c3)c2)cc(C(F)(F)F)n1 |
| 253 | – | CCCCCCCS(=O)(=O)c1nc(-c2ccc(=O)n(Cc3ccc(OC)c(OC)c3)c2)cc(C(F)(F)F)n1 |
| 94 | – | COc1ccc(Cn2cc(-c3cc(C(F)(F)F)nc(S(C)(=O)=O)n3)ccc2=O)cc1 |
| 3520 | – | COC(=O)c1cccc(-c2cc(C(F)(F)F)nc(S(C)(=O)=O)n2)c1 |
| 8760 | – | CS(=O)(=O)c1nc(-c2cccc(Oc3ccccc3)c2)cc(C(F)(F)F)n1 |
| 69 | – | CCCOc1cccc(Cn2cc(-c3cc(C(F)(F)F)nc(S(C)(=O)=O)n3)ccc2=O)c1 |
| 4060 | – | CS(=O)(=O)c1nc(-c2ccc(=O)n(Cc3cccc(C#N)c3)c2)cc(C(F)(F)F)n1 |
| 66 | – | CS(=O)(=O)c1nc(-c2ccc(=O)n(Cc3ccc(Cl)cc3)c2)cc(C(F)(F)F)n1 |
| 3490 | – | Cc1cccc(-c2cc(C(F)(F)F)nc(S(C)(=O)=O)n2)c1 |
| 282 | – | COCCCS(=O)(=O)c1nc(-c2ccc(=O)n(Cc3ccc(OC)c(OC)c3)c2)cc(C(F)(F)F)n1 |

Continued, molecule first:

| SMILES | EC50 [1] [nM] | EC50 [2] [nM] |
| --- | --- | --- |
| COC(=O)c1ccccc1-c1cc(C(F)(F)F)nc(S(C)(=O)=O)n1 | 7030 | – |
| COc1ccc(Cn2cc(-c3cc(C(F)(F)F)nc(S(=O)(=O)CCCC(=O)N4CCCC4)n3)ccc2=O)cc1OC | 27 | – |
| CS(=O)(=O)c1nc(-c2ccc(=O)[nH]c2)cc(C(F)(F)F)n1 | > 20000 | – |
| CS(=O)(=O)c1nc(-c2ccccc2)cc(C(F)(F)F)n1 [MLS000044644] | 2200 | – |
| Cc1ccc(-c2cc(C(F)(F)F)nc(S(C)(=O)=O)n2)cc1 | 6360 | – |
| CCOC(=O)CCS(=O)(=O)c1nc(-c2cccs2)cc(C(F)(F)F)n1 | 1140 | – |
| CS(=O)(=O)c1nc(-c2cccs2)cc(C(F)(F)F)n1 [MLS000044645] | 749 | – |
| COc1ccc(Cn2cc(-c3cc(C(F)(F)F)nc(S(=O)(=O)CCCC(=O)N4CCCCC4)n3)ccc2=O)cc1OC | 1.4 | – |
| Cc1ccc(O)c(NC(=O)CCCS(=O)(=O)c2nc(-c3cccs3)cc(C(F)(F)F)n2)c1 | 4000 | – |
| CS(=O)(=O)c1nc(-c2cccs2)cc(C2CCC(=O)N2)n1 (centres undefined) | > 20000 | – |
| Cc1ccccc1-c1cc(C(F)(F)F)nc(S(C)(=O)=O)n1 | 6640 | – |
| Cc1cc(-c2cccs2)nc(S(C)(=O)=O)n1 | > 20000 | – |
| O=S(=O)(CCc1ccccc1)c1nc(-c2cccs2)cc(C(F)(F)F)n1 | 1590 | – |
| COc1ccc(Cn2cc(-c3cc(C(F)(F)F)nc(S(=O)(=O)CCCC(=O)NC45CC6CC(CC(C6)C4)C5)n3)ccc2=O)cc1OC | 0.42 | 0.23 |
| CCS(=O)(=O)c1nc(-c2cccs2)cc(C(F)(F)F)n1 | 1430 | – |
| CN(C)C(=O)c1cccc(-c2cc(C(F)(F)F)nc(S(C)(=O)=O)n2)c1 | > 20000 | – |
| CS(=O)(=O)c1nc(N=[N+]=[N-])cc(-c2cccs2)n1 | > 20000 | – |
| CS(=O)(=O)c1nc(-c2cccs2)cc(-c2cccs2)n1 | > 20000 | – |
| O=S(=O)(Cc1ccc(-c2ccccc2)cc1)c1nc(-c2cccs2)cc(C(F)(F)F)n1 | 4210 | – |
